This assay has as its target T1, human Fatty Acid Synthase (Homo sapiens, UniProt P49327).
T1 construct: made in house
The assay can be described thus: Human FAS enzyme assay (decrease in NADPH fluorescence). The assay is classed as biochemical. As to conditions: for inhibition at 100 µM: % inhibition at a concentration of 100 μmolar; for IC50, inhibition of human Fatty Acid Synthase: FAS enzyme assay, IC50 from fitted sigmoid curves. Summed up:
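In-house human FAS was preincubated with compound and NADPH for 15 min at room temperature in 0.1 M Tris pH 7.5 with EDTA, glutathione and BSA. Malonyl CoA and acetyl CoA (500 μM and 150 μM in the added mix) were then added for 60 min. IC50 came from time-zero-subtracted NADPH fluorescence (340/460 nm).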

This note sets out measurements from US20090118332A1, “Therapeutic Agents - 551” (AstraZeneca AB, priority 2006, published 2009).

T1 sequence (P49327 whole entry): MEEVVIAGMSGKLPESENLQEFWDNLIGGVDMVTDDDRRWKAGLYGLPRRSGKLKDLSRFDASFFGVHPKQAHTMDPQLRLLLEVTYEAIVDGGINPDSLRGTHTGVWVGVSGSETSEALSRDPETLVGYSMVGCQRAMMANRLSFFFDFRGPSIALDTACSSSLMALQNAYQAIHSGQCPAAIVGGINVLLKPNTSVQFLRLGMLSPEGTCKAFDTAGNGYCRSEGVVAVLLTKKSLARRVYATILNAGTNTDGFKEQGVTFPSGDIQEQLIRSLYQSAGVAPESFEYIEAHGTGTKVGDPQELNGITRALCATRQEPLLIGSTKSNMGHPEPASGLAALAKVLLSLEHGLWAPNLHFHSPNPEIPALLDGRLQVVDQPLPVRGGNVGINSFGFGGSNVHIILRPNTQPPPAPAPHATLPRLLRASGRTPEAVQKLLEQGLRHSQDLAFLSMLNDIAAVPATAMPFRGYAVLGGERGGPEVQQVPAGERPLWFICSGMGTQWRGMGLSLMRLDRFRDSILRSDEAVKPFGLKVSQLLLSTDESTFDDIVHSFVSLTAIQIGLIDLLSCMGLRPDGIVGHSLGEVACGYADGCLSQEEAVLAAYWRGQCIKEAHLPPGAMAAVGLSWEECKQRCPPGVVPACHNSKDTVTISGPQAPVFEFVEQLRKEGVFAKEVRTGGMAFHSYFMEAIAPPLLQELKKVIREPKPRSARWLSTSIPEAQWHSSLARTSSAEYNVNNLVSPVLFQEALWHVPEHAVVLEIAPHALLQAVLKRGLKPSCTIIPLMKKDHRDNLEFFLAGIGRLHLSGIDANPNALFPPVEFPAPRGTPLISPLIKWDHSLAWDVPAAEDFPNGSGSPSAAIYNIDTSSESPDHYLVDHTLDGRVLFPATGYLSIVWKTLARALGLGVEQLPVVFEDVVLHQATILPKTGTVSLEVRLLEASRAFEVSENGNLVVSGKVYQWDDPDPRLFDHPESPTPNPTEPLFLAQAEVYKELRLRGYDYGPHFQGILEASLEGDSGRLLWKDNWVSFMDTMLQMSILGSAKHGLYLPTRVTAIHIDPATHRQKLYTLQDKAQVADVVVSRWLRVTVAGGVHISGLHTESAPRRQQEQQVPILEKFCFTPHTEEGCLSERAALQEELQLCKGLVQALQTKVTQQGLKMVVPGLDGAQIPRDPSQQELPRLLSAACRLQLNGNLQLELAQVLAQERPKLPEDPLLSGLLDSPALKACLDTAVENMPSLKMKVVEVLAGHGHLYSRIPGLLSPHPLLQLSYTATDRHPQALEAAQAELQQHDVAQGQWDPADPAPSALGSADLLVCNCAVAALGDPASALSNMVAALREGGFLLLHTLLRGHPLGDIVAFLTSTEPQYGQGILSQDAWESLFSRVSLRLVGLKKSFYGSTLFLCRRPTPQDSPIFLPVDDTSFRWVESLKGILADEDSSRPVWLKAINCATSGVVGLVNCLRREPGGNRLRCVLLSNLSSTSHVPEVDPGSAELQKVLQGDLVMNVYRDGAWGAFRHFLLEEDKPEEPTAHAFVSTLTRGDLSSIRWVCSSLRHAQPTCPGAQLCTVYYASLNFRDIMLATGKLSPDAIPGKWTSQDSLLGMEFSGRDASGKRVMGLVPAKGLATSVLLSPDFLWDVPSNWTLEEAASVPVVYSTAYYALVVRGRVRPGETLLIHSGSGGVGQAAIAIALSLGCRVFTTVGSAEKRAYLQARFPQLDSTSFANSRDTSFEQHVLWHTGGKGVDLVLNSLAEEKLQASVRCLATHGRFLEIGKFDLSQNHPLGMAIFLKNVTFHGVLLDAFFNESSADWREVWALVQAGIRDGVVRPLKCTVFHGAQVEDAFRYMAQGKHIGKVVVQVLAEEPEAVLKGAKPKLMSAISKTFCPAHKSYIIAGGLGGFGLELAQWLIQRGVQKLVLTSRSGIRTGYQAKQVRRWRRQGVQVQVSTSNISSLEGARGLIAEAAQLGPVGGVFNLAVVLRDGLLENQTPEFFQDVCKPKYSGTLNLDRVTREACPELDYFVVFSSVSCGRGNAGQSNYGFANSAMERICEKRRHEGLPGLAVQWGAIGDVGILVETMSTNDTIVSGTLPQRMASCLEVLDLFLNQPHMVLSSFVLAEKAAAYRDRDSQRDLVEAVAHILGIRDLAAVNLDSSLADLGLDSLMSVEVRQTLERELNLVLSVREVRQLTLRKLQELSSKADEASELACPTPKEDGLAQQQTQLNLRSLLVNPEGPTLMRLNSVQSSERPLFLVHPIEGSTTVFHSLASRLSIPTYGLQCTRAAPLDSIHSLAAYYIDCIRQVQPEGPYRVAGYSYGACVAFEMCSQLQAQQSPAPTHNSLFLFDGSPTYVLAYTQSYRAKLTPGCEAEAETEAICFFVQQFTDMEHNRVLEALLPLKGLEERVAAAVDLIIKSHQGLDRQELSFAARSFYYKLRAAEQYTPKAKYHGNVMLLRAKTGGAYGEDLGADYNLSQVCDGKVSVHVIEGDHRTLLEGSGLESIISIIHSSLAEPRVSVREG

On to `CCCN(C(=O)Nc1cc(C(=O)N2CCC(c3ccc(C#N)cc3)CC2)ccc1C)C1CCS(=O)(=O)C1` (stereo not drawn) [Example 397, 3-[5-[4-(4-cyanophenyl)piperidine-1-carbonyl]-2-methylphenyl]-1-(1,1-dioxothiolan-3-yl)-1-propylurea], for which the inhibition at 100 µM was determined as 63.7%. On the same count and under the same terms, for `Cc1ccc(C(=O)N2CCC(c3ccc(C#N)cc3)CC2)cc1NC(=O)N(C)CC(=O)NC(C)C` [Example 398, 2-[[5-[4-(4-cyanophenyl)piperidine-1-carbonyl]-2-methylphenyl]carbamoyl-methylamino]-N-propan-2-ylacetamide] the value was 66.3%; for `CCOCC1CCCN1C(=O)Nc1cc(C(=O)N2CCC(c3ccc(C#N)cc3)CC2)ccc1C` (stereo not drawn) [Example 399, N-[5-[4-(4-cyanophenyl)piperidine-1-carbonyl]-2-methylphenyl]-2-(ethoxymethyl)pyrrolidine-1-carboxamide], 73.3%; for `CNCCNC(=O)Nc1cc(C(=O)N2CCC(c3ccc(F)cc3)CC2)ccc1C` [Example 400, 1-[5-[4-(4-fluorophenyl)piperidine-1-carbonyl]-2-methylphenyl]-3-(2-methylaminoethyl)urea], 66.7%.

Consider `CC(=O)NCCN(C)C(=O)Nc1cc(C(=O)N2CCC(c3ccc(C#N)cc3)CC2)ccc1C` [Example 401, N-[2-[[5-[4-(4-cyanophenyl)piperidine-1-carbonyl]-2-methylphenyl]carbamoyl-methylamino]ethyl]acetamide], for which the inhibition at 100 µM was found to be 65.7%.

Turning to `CCS(=O)(=O)NCCN(C)C(=O)Nc1cc(C(=O)N2CCC(c3ccc(C#N)cc3)CC2)ccc1C` [Example 402, 3-[5-[4-(4-cyanophenyl)piperidine-1-carbonyl]-2-methylphenyl]-1-[2-(ethylsulfonylamino)ethyl]-1-methylurea], the inhibition at 100 µM amounted to 64.6%.

For `CC(C)NC(=O)Nc1cc(C(=O)N2CCC(c3ccc(C#N)cc3)CC2)ccc1CS(C)(=O)=O` [Example 403, 3-[5-[4-(4-cyanophenyl)piperidine-1-carbonyl]-2-(methylsulfonylmethyl)phenyl]-1-propan-2-ylurea], the inhibition at 100 µM worked out at 79.9%. For the molecule `Cc1ccc(NC(=O)NC(C)C)cc1C(=O)N1CCC(c2ccc(C#N)cc2)CC1` [Example 404, 1-[3-[4-(4-cyanophenyl)piperidine-1-carbonyl]-4-methylphenyl]-3-propan-2-ylurea], the inhibition at 100 µM was 76.5%. Regarding `CSc1ccc(NC(=O)NC(C)C)cc1C(=O)N1CCC(c2ccc(C#N)cc2)CC1` [Example 405, 3-[3-[4-(4-cyanophenyl)piperidine-1-carbonyl]-4-methylsulfanylphenyl]-1-propan-2-ylurea], the inhibition at 100 µM worked out at 66.8%. `Cc1ccc(C(=O)N2CCC(c3ccc(C#N)cc3)CC2)cc1NC(=O)NC1CCC(C(=O)O)CC1` (stereo not drawn) [Example 406, 4-[[5-[4-(4-cyanophenyl)piperidine-1-carbonyl]-2-methylphenyl]carbamoylamino]cyclohexane-1-carboxylic acid]: the inhibition at 100 µM amounted to 93.4%. On the same count and under the same terms, for `Cc1ccc(C(=O)N2CCC(c3ccc(C#N)cc3)CC2)cc1NC(=O)NCCCC(=O)O` [Example 407, 4-[[5-[4-(4-cyanophenyl)piperidine-1-carbonyl]-2-methylphenyl]carbamoylamino]butanoic acid] the value was 104%; for `Cc1ccc(C(=O)N2CCC(c3ccc(C#N)cc3)CC2)cc1NC(=O)NCC(=O)O` [Example 408, 2-[[5-[4-(4-cyanophenyl)piperidine-1-carbonyl]-2-methylphenyl]carbamoylamino]acetic acid], 95.7%; for `Cc1cc(C)c(C(=O)N2CCC(c3ccc(C#N)cc3)CC2)cc1NC(=O)NCc1ccccn1` [Example 409, 1-[5-[4-(4-cyanophenyl)piperidine-1-carbonyl]-2,4-dimethylphenyl]-3-(pyridin-2-ylmethyl)urea], 96.9%. Regarding `CCNC(=O)Nc1cc(C(=O)N2CCC(c3ccc(C#N)cc3)CC2)c(C)cc1C` [Example 410, 3-[5-[4-(4-cyanophenyl)piperidine-1-carbonyl]-2,4-dimethylphenyl]-1-ethylurea], the inhibition at 100 µM stood at 93.7%.

With `Cc1cc(C)c(C(=O)N2CCC(c3ccc(C#N)cc3)CC2)cc1NC(=O)NC1CC1` [Example 411, 1-[5-[4-(4-cyanophenyl)piperidine-1-carbonyl]-2,4-dimethylphenyl]-3-cyclopropylurea], the inhibition at 100 µM came out at 90%.

On to `COCCNC(=O)Nc1cc(C(=O)N2CCC(c3ccc(C#N)cc3)CC2)c(C)cc1C` [Example 412, 1-[5-[4-(4-cyanophenyl)piperidine-1-carbonyl]-2,4-dimethylphenyl]-3-(2-methoxyethyl)urea], for which the inhibition at 100 µM worked out at 89.9%. For `C#CCNC(=O)Nc1cc(C(=O)N2CCC(c3ccc(C#N)cc3)CC2)c(C)cc1C` [Example 413, 1-[5-[4-(4-cyanophenyl)piperidine-1-carbonyl]-2,4-dimethylphenyl]-3-prop-2-ynylurea], the inhibition at 100 µM was determined as 101%. For the molecule `Cc1ccc(NC(=O)NCc2ccccn2)cc1C(=O)N1CCC(c2ccc(C#N)cc2)CC1` [Example 414, 1-[3-[4-(4-cyanophenyl)piperidine-1-carbonyl]-4-methylphenyl]-3-(pyridin-2-ylmethyl)urea], the inhibition at 100 µM is 83.6%. On to `Cc1ccc(NC(=O)NC2CC2)cc1C(=O)N1CCC(c2ccc(C#N)cc2)CC1` [Example 415, 1-[3-[4-(4-cyanophenyl)piperidine-1-carbonyl]-4-methylphenyl]-3-cyclopropylurea], for which the inhibition at 100 µM was found to be 78.2%. Turning to `CCOCCCNC(=O)Nc1ccc(C)c(C(=O)N2CCC(c3ccc(C#N)cc3)CC2)c1` [Example 416, 3-[3-[4-(4-cyanophenyl)piperidine-1-carbonyl]-4-methylphenyl]-1-(3-ethoxypropyl)urea], the inhibition at 100 µM came to 90.8%. Take `COCCNC(=O)Nc1ccc(C)c(C(=O)N2CCC(c3ccc(C#N)cc3)CC2)c1` [Example 417, 1-[3-[4-(4-cyanophenyl)piperidine-1-carbonyl]-4-methylphenyl]-3-(2-methoxyethyl)urea]: the inhibition at 100 µM turned out to be 85.1%.

`C#CCNC(=O)Nc1ccc(C)c(C(=O)N2CCC(c3ccc(C#N)cc3)CC2)c1` [Example 418, 1-[3-[4-(4-cyanophenyl)piperidine-1-carbonyl]-4-methylphenyl]-3-prop-2-ynylurea]: the inhibition at 100 µM was determined as 67.3%. On to `COC(=O)C(C)(C)NC(=O)Nc1cc(C(=O)N2CCC(c3ccc(C#N)cc3)CC2)ccc1C` [Methyl 2-[[5-[4-(4-cyanophenyl)piperidine-1-carbonyl]-2-methylphenyl]carbamoylamino]-2-methylpropanoate], for which the “IC50, inhibition of human Fatty Acid Synthase” value was “do not have IC50s in the range of about 0.001 μM to about 30 μM”.

In the case of `COC(=O)C(Cc1ccc(F)cc1)NC(=O)Nc1cc(C(=O)N2CCC(c3ccc(C#N)cc3)CC2)ccc1C` (stereo not drawn) [Methyl 2-[[5-[4-(4-cyanophenyl)piperidine-1-carbonyl]-2-methylphenyl]carbamoylamino]-3-(4-fluorophenyl)propanoate], the “IC50, inhibition of human Fatty Acid Synthase” value is “do not have IC50s in the range of about 0.001 μM to about 30 μM”.
